Data from patent US7012098B2, “Inhibitors of inducible nitric oxide synthase for chemoprevention and treatment of cancers” (Pharmacia Corporation, priority 2001, dated 2006).
Structures can show the parent of a compound that is named as a salt.

Tests used:
i-NOS = i-NOS (Homo sapiens, UniProt P35228); assay: i-NOS inhibition, comparison with NIL amides; assay type: biochemical; settings: compared with NIL amide or NIL dimethylamide
intestinal tumorigenesis = settings: APC^Δ716 mice; cited from earlier work
NOS = assay: Colonic mucosal NOS activity after dietary treatment; assay type: in vivo, male F344 rats; settings: 1800 ppm in diet; AOM-treated rats, colonic mucosa; Mean ± SEM
Description: (§1) In Vivo Assay of Modulation of Colonic Mucosal Activities of NOS and COX isoforms by iNOS and COX-2 Inhibitors
(§2) NOS and iNOS activities were determined in colonic samples as prepared and described above. Conversion of L-arginine to L-citrulline was measured by a modification of an earlier described method (Rao et al, Carcinogenesis 21, supra; Ambs et al., Cancer Res. 58:334-41, 1998, which is herein incorporated by reference). The assay was carried out by adding 100 μg sample protein to 150 μl of assay buffer [50 mM HEPES, 1 mM DTT, 1 mM MgCl2, 5 mg/L pepstatin A, 0.1 mM PMSF, and 3 mg/L aprotinin, pH 7.4] containing 70 μM arginine, 250,000 dpm L-[^3H]-arginine, 2 mM NADPH, 5μM tetrahydro biopterin, 5 μM flavin adenine dinucleotide, and 0.5 mM CaCi2 to measure total NOS activity, or 1 mM EGTA (without calcium) to determine Ca+^2-independent iNOS activity. After 30 min at 37° C., the reaction was stopped with 100 μl of 1M trichloroacetic acid. Then the samples were adjusted to pH 4.6 by adding 500 μl of 20 mM HEPES and loaded on to Dowex AG 50W-X8 resin columns. L-[^3H]-citrulline was eluted and separated on TLC. Radioactivity was counted by a BioScan Radiomatic detector. Results are expressed as pmol L-[^3H]-citrulline released/mg protein/min.

iNOS = iNOS (Rattus norvegicus, UniProt Q06518); assay: Colonic mucosal iNOS activity after dietary treatment; assay type: in vivo, male F344 rats
Description: as §1, §2

COX-1 = target: T1, COX-1 (Rattus norvegicus, UniProt Q63921); assay: Colonic mucosal COX-1 activity after dietary treatment; assay type: in vivo, male F344 rats; settings: 1800 ppm in diet; AOM-treated rats, colonic mucosa; Mean ± SEM
T1 sequence (Q63921 27-602): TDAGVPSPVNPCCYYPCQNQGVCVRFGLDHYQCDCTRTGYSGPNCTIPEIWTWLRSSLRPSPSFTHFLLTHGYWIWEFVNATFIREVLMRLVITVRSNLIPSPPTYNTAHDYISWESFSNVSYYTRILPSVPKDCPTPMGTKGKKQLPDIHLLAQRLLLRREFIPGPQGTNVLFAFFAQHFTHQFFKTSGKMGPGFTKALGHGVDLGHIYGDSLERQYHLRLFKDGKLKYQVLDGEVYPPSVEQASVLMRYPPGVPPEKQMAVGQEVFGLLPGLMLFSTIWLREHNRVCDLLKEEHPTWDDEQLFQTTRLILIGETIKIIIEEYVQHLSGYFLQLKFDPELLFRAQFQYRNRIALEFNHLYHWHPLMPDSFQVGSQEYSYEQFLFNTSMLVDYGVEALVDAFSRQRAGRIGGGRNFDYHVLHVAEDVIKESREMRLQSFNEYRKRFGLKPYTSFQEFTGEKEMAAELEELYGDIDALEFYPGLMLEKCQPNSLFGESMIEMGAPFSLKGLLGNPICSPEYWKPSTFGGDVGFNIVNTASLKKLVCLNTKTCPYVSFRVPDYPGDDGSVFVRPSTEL
Description: (§3) For determining COX-2 activity, proteins were preincubated with 50 μM of aspirin to block the activity of COX-1. After incubation at 37° C. for 15 min, the reaction was terminated by adding 40 μl of 0.2 M HCl. The COX-mediated metabolites of arachidonic acid were extracted with ethyl acetate (3×0.5 ml). The combined extracts were evaporated to dryness under N2, redissolved in chloroform, and subjected to thin layer chromatography on precoated TLC plastic plates (silica G 60, 20×20 cm, layer thickness 150 μm). […] The metabolites of ^14C-AA corresponding to PGE2, PGF2α, PGD2, 6-Keto PGF1α, and TXB2 were detected by their comigration (Rf-values) with authentic standards. The area of each metabolite was determined in a Bioscan System 200 image scanning counter (Bioscan Inc., Washington, D.C.) equipped with β-detector.

AOM-induced colonic ACF = assay: Chemopreventive effects in rats with azoxymethane-induced aberrant crypt foci; assay type: in vivo, male F344 rats
Source text: In Vivo Assay of Chemopreventive Effects of Therapeutic Compounds in Rats with Azoxymethane-induced Aberrant Crypt Foci
Azoxymethane (AOM) (CAS:25843-45-2) was purchased from Ash Stevens (Detroit, Mich.). iNOS and COX-2 selective inhibitors were provided by Pharmacia, (St. Louis, […].). Sulindac, a non-selective inhibitor of COX-isoforms and a known inhibitor of colon carcinogenesis, was supplied by the Chemoprevention Branch of the National Cancer Institute (Bethesda, Md.). Weanling male F344 rats were purchased from Charles River Breeding Laboratories (Kingston, N.Y.). All ingredients of the semipurified diet were obtained from Dyets Inc., (Bethlehem, Pa.) and were stored at 4° C. until the experimental diets were prepared. The rats were held in quarantine for 1 week and had access to modified AIN-76A semipurified control diet (Reddy et al., Cancer Res. 50: 2562-2568, 1990, which is herein incorporated by reference.). They were randomly distributed into various dietary groups and were transferred to an animal holding room where they were housed, three rats to a plastic cage, under controlled conditions of a 12-h light/12-h dark cycle, 50% relative humidity and 21° C. room temperature. Experimental diets were prepared by mixing chemopreventive agents with modified AIN-76A control diet.
To quantify aberrant crypt foci, after a minimum of 24 h in buffered formalin, the colons were cut into 2-cm segments starting at the anus; for the next 5-10 min they were placed in a Petri dish containing 0.2% methylene blue in Krebs Ringer solution. They were then placed, mucosal side up, on a microscope slide and observed through a light microscope. Aberrant crypt foci were recorded according to standard procedures that are being used routinely in our laboratory (Rao et al., Carcinogenesis 21: 617-21, 2000; Rao et al., Cancer Res. 53:4182-88, 1993, which are herein incorporated by reference.). […] The parameters used to assess the aberrant crypts were their occurrence and multiplicity. Crypt multiplicity was determined as the number of crypts in each focus and categorized as containing up to 3, or 4 or more aberrant crypts/focus.

COX-2 = target: T2, COX-2 (Rattus norvegicus, UniProt P35355); assay: Colonic mucosal COX-2 activity after dietary treatment; assay type: in vivo, male F344 rats; settings: 1800 ppm in diet; AOM-treated rats, colonic mucosa; Mean ± SEM
T2 sequence (P35355 18-604): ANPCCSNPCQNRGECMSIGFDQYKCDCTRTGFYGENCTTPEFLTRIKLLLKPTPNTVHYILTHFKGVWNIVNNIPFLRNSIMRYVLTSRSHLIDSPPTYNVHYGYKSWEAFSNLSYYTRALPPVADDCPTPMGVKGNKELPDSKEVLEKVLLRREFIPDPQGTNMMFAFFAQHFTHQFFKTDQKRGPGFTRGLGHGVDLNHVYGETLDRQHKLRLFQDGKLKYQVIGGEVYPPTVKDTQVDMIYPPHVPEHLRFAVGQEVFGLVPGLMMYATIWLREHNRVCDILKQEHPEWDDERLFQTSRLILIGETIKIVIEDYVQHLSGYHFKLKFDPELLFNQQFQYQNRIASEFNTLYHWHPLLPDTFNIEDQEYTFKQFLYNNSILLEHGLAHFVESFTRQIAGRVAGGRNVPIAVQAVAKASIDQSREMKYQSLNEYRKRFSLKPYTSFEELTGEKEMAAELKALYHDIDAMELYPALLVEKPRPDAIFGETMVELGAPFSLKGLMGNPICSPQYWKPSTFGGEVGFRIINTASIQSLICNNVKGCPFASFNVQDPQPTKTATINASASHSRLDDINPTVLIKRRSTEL
Description: as §3

[1] = 1800 ppm in diet, AOM-treated male F344 rats, Mean ± SEM

Chain of i-NOS (P35228 whole entry): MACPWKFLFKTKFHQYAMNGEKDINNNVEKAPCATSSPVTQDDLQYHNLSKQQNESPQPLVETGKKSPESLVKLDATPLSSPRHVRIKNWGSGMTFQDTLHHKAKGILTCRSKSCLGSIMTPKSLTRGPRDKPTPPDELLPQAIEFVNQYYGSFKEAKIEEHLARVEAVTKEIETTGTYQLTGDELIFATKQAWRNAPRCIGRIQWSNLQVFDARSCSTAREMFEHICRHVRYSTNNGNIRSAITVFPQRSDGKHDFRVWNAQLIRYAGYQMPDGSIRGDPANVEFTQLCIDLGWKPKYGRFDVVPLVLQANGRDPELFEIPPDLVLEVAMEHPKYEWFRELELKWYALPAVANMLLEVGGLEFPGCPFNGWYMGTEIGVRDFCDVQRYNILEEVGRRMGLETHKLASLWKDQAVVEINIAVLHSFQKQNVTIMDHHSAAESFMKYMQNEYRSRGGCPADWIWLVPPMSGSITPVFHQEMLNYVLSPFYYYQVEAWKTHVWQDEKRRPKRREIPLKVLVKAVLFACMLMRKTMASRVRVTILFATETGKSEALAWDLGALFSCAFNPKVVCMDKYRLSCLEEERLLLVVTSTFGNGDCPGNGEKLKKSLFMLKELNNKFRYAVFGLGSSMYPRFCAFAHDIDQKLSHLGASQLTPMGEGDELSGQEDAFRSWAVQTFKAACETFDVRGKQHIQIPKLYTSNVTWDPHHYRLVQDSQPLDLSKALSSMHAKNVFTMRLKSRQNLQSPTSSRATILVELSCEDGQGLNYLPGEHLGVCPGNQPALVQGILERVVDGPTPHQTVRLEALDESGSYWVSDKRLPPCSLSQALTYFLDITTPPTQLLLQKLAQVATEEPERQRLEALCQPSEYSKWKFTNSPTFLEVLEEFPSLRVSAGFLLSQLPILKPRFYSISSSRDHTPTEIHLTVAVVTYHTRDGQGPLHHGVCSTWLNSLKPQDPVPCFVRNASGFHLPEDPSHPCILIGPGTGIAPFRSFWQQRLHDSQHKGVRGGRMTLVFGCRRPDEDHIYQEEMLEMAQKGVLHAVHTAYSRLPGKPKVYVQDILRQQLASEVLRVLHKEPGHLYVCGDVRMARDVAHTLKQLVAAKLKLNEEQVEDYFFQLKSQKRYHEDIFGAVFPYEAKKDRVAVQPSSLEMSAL

For CC(=NO)NC/C(F)=C\CC[C@H](N)C(=O)O [Example G, (2S,5E)-2-amino-6-fluoro-7-[(1-hydroximinoethyl)amino]-5-heptenoic acid], the melting point was 198 to 200 °C.

For CC(=N)NCCCC[C@H](N)C(=O)Nc1nnn[nH]1 [Example NN, 2S-amino-6-[(1-iminoethyl)amino]-N-(1H-tetrazol-5-yl)hexanamide, hydrate, dihydrochloride], the i-NOS inhibitor potency (i-NOS) was “more potent”.

In the case of CS(=O)(=O)c1ccc(C2=C(c3ccc(F)c(F)c3)C(=O)OC2)cc1 [MF-Tricyclic], the intestinal tumorigenesis (intestinal tumorigenesis) is listed as “blocks”.

With N=C(N)NN [aminoguanidine] the “NOS Activity, NOS” value (NOS) was 7.9 ± 1.7 pmoles [^3H]-citrulline/mg pro, the “suppression of AOM-induced colonic mucosal iNOS activity” value (iNOS; 1800 ppm) was 50% and the “NOS Activity, iNOS” value (iNOS; 1800 ppm in diet, AOM-treated rats, colonic mucosa, Mean ± SEM) was 1.1 ± 0.1 pmoles [^3H]-citrulline/mg pro. For the same molecule, the “COX-Activity, COX-1” value (COX-1) was 10.8 ± 1.9 pmoles [^14C]-AA metabolized/m, the “Foci containing 1 Crypt” value (AOM-induced colonic ACF; [1]) was 28.0 ± 2.4 and the “Foci containing 2 Crypt” value (AOM-induced colonic ACF; [1]) was 29.3 ± 1.3. For the same molecule, the “Foci containing 3 Crypt” value (AOM-induced colonic ACF; [1]) was 17.8 ± 1.0, the “Foci containing ≧4 Crypts” value (AOM-induced colonic ACF; [1]) was 14.6 ± 1.8 and the “Total ACF incidence” value (AOM-induced colonic ACF; [1]) was 89.8 ± 4.5. The “effect on AOM-induced total colonic ACF and multicrypt clusters of 4 or more crypts” value (AOM-induced colonic ACF; 1,800 ppm, compared to control diet) was “suppressed” and the “COX-Activity, COX-2” value (COX-2) was 1.2 ± 0.2 pmoles [^14C]-AA metabolized/m.
